Series [1] in a line: cardiotoxicity compared with aclacinomycin A. As to conditions: comparing with aclacinomycin A.
Series [2] relates to L 1210 cells. Briefly: growth and nucleic acid biosynthesis of murine leukemia L 1210 cells in culture. Format: cell-based. As for the experimental part: (§1) In an example, L 1210 cells were inoculated in RPMI (Rosewell Park Memorial Institute) 1640 medium containing 20% calf serum at the cell density of 5×10^4 cells/ml, and the compound in the present invention was simultaneously added to the medium at the concentration of 0.1 and 0.5 μg/ml and incubated at 37° C. in a CO2 incubator. 50% growth inhibition concentration of the compound over controls was determined. L 1210 cells as described above were also inoculated at 5×10^5 cells in RPMI 1640 medium containing 10% calf serum and incubated at 37° C. for 1 to 2 hours in a CO2 incubator. The cells were cultured for 15 min. at 37° C. after the compound of the present invention was added at various concentrations, and then ^14 C-uridine (0.05 μCi/ml) or ^14 C-thymidine (0.05 μCi/ml) was added and incubated for 60 additional min. at 37° C. After stopping the pulse-labeling by addition of 10% trichloroacetic acid (TCA) solution to the reaction mixture, acid-insoluble materials were precipitated, washed three times with 5 to 10% TCA, and dissolved in a small amount of formic acid. Then, radioactivity was determined, and inhibitory effects on the RNA and DNA biosynthesis were indicated by the 50% inhibition concentration (IC50) of the incorporation of radioactivity over controls.

In another series the test system is L 1210 leukemia. Nature of the series: in vivo antitumor activity: L 1210 (prolongation of lifespan of CDF1 mice inoculated intraperitoneally with L 1210 cells). More on the design: species or system mice (murine; CDF1). As to conditions: for T/C: once daily for 10 days, from 24 h after inoculation. As for the experimental part: Antitumor effect against experimental animal tumor was examined as follows. CDF1 mice were inoculated with 1×10^5 cells of L 1210 cells intraperitoneally, and 2-hydroxyaclacinomycin A was administered intraperitoneally once daily for 10 days consecutively, 24 hours after inoculation. Prolongation of lifespan over controls (injected with only physiological saline instead of 2-hydroxyaclacinomycin A) is shown in Table 1. LD50 value in dd mice is also shown in Table 1 comparing with that of aclacinomycin A.

The test system of a further series is dd mice. Nature of the series: Acute toxicity (LD50) in dd mice. As to conditions: compared with daunomycin and adriamycin. It is filed as in vivo.
Series [3] is described as follows: Acute toxicity (LD50) in dd mice. It is filed as in vivo. As to conditions: mouse, in vivo, ip; dd mice.
Series [4] deals with RNA biosynthesis in L 1210 cells. Briefly: in vitro activity: RNA synthesis in L 1210 cells (14C-uridine incorporation). As to conditions: for IC50: Mus musculus, L1210, L 1210, 14C-uridine, 60 min pulse after 15 min with compound, 37° C. Format: cell-based, murine. As for the experimental part:
as §1

In series [5] the test system is DNA biosynthesis in L 1210 cells. Briefly: in vitro activity: DNA synthesis in L 1210 cells (14C-thymidine incorporation). As to conditions: Mus musculus, L1210; L 1210, 14C-thymidine, 60 min pulse after 15 min with compound, 37° C. It is filed as cell-based, murine. As for the experimental part:
as §1
A general note: Uptake of a labelled nucleoside into DNA is a usual measure of proliferation.

The test system of series [6] is L 1210 cells. Nature of the series: in vitro activity: L 1210 growth inhibition. Format: cell-based, murine. As to conditions: for IC50: Mus musculus, L1210, L 1210, RPMI 1640 with 20% calf serum, 37° C. As for the experimental part:
as §1

Structures are written as SMILES. In brackets after ≈: the same amount, converted by molar mass.

For the compound `CCC1(O)CC(OC2CC(N(C)C)C(OC3CC(O)C(OC4CCC(=O)C(C)O4)C(C)O3)C(C)O2)c2c(cc3c(c2O)C(=O)c2c(O)cc(O)cc2C3=O)C1C(=O)OC` (centres unmarked) [2-Hydroxyaclacinomycin A, 2-hydroxyaclacinomycin A], in series [1], the “cardiotoxicity, in words” value was “less cardiotoxicity”. Also, in the series on L 1210 cells [2], the “inhibition of growth and nucleic acid biosynthesis, in words” value is “inhibited markedly the growth and nucleic acid biosynthesis”. For the same compound, the T/C with L 1210 leukemia (0.5 mg/kg/day i.p.) is 145%; with L 1210 leukemia (1 mg/kg/day i.p.) it was 153%; in the series on L 1210 leukemia (2 mg/kg/day i.p.) it was 176%; in the series on L 1210 leukemia (4 mg/kg/day i.p.), 201%; in the series with L 1210 leukemia (6 mg/kg/day i.p.), 218%; in the series on L 1210 leukemia (8 mg/kg/day i.p.) it was 194%. The compound further registered a T/C with L 1210 leukemia (12 mg/kg/day i.p.) of 127%. The “prolongation of lifespan, in words” value in the series on L 1210 leukemia (L 1210-bearing mice) is reported as “marked prolongation of lifespan”. Further, the “antitumor activity, in words” value with L 1210 leukemia (comparing with aclacinomycin A) is on record as “more potent antitumor activity”. Besides, the “effective dose range relative to aclacinomycin A” value in the series with L 1210 leukemia (relative to aclacinomycin A) is “twice”. The “acute toxicity, in words” value in the series with dd mice is “much more less than those of known anthracycline antibiotics such as daunomycin and adriamycin”. The compound further registered an LD50 in series [3] of 50 mg/kg. Further, the IC50 in series [4] amounted to 0.1 µg/mL (≈ 0.121 µM); in series [5], 0.95 µg/mL (≈ 1.15 µM); in the series on L 1210 cells [6], 0.1 µg/mL (≈ 0.121 µM). The “inhibition of RNA synthesis, in words” value in series [4] (mode of action compared to aclacinomycin and rhodomycin-group) is given as “specifically inhibited RNA synthesis”. In the series on L 1210 cells [6] (murine leukemic cells, low concentration), the “suppression of growth, in words” value is given as “suppressed the growth of murine leukemic cells at low concentration”.

As to `CC[C@@]1(O)C[C@H](O[C@H]2C[C@H](N(C)C)[C@H](O[C@H]3C[C@H](O)[C@H](O[C@H]4CCC(=O)[C@H](C)O4)[C@H](C)O3)[C@H](C)O2)c2c(cc3c(c2O)C(=O)c2c(O)cccc2C3=O)[C@H]1C(=O)OC` [Aclacinomycin A], the T/C was 130% in the series on L 1210 leukemia (0.5 mg/kg/day i.p.); 146% in the series on L 1210 leukemia (1 mg/kg/day i.p.); 165% in the series with L 1210 leukemia (2 mg/kg/day i.p.); 205% with L 1210 leukemia (4 mg/kg/day i.p.); 105% in the series with L 1210 leukemia (6 mg/kg/day i.p.). Moreover, the “toxicity in words at 8 mg/kg/day (in T/C column)” value in the series with L 1210 leukemia (8 mg/kg/day i.p., L 1210-bearing CDF1 mice) is on record as “Toxic”. This compound gave an LD50 in series [3] of 22.6 mg/kg. Further, the IC50 in series [4] was determined as 0.1 µg/mL (≈ 0.123 µM); in series [5], 1.1 µg/mL (≈ 1.35 µM); in the series on L 1210 cells [6] it was 0.12 µg/mL (≈ 0.148 µM).

A word on the T/C: it is the ratio of treated to control. For orientation: LD50 means the dose at which mortality reaches 50%. Read a high LD50 as a less toxic substance. For orientation: IC50 means the concentration at which inhibition is half-maximal.
